Reference: patent US5519034A, “Tetraisoquinoline compounds which have useful pharmaceutical utility” (The Boots Company PLC, priority 1991, dated 1996)

Experiments:
D1 dopamine receptors = target: T1, D1 dopamine receptors (Rattus norvegicus, UniProt P18901); test: D1 dopamine receptor binding: inhibition of tritiated SCH 23390 binding, rat striatal samples; design: species or system rat (male Charles River CD rats); settings: rat striatum, tritiated SCH 23390, pH 7.4, 37° C., 30 minutes
T1 construct: Striatal samples from the brains of male Charles River CD rats; from tissue; host or cells: striatum of male Charles River CD rats (washed membrane pellet)
T1 sequence (P18901 whole entry): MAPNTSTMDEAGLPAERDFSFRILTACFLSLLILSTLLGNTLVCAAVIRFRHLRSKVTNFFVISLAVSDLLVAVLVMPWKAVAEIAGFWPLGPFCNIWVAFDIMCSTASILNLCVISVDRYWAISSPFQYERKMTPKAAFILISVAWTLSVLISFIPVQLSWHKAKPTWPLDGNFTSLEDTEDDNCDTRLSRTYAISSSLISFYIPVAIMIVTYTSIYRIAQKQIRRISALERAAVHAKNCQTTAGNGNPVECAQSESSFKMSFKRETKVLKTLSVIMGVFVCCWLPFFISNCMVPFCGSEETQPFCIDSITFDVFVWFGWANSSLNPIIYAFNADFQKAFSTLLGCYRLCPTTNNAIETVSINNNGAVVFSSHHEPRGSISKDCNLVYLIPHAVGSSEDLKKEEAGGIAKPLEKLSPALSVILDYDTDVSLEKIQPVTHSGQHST
Procedure, shortened: (§1)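 Rat striatal membranes in Tris-HCl with NaCl, KCl, CaCl2, MgCl2. Filtration, scintillation counting; Ki from displacement IC50 via ligand KD, some D2 Ki estimated from single concentrations.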

D2 dopamine receptors = target: T2, D2 dopamine receptors (Rattus norvegicus, UniProt P61169); test: D2 dopamine receptor binding: inhibition of tritiated (S)-sulpiride binding, rat striatal samples; design: species or system rat (male Charles River CD rats)
T2 construct: Striatal samples from the brains of male Charles River CD rats; from tissue; host or cells: striatum of male Charles River CD rats (washed membrane pellet)
T2 sequence (P61169 whole entry): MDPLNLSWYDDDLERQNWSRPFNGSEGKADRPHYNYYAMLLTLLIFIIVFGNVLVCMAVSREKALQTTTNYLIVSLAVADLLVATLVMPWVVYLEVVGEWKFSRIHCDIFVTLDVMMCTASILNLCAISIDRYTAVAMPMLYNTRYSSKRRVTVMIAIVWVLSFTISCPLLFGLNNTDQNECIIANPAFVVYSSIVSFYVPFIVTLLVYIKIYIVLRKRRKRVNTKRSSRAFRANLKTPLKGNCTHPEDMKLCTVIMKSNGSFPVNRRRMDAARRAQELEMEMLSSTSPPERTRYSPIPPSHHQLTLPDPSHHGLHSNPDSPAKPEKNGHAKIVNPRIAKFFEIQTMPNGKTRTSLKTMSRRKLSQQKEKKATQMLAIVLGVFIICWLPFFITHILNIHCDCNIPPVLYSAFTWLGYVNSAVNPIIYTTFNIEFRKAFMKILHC
Procedure, shortened: as §1

Ki (D1 dopamine receptors): 0.012 µM
Ki (D2 dopamine receptors; rat striatum, tritiated (S)-sulpiride, pH 7.7, 4° C., 40 minutes, > = from highest concentration which displaced ≤50% of the ligand, read-out: Ki for D2 binding): 5.1 µM
Ki for D2 / Ki for D1 (D2 dopamine receptors; ratio to two significant figures): 430
Compound: COc1cc2c(cc1O)C(C1(c3ccccc3Cl)CCCC1)N(C)CC2 (stereo not drawn) [Example 84, 1-[1-(2-chlorophenyl)cyclopentyl]-7-hydroxy-6-methoxy-2-methyl-1,2,3,4-tetrahydroisoquinoline]
